Where a name gives a salt, the structure may show the parent alone.

The assay concerns Acinetobacter baumannii ATCC17978. The assay can be described thus: Antimicrobial susceptibility testing, 90% growth inhibitory concentration (IC90) determination, ATCC17978. Type of assay: cell-based. To be noted: Iso-Sensitest broth, OD 600 nm over 16 h, 35±2° C., read-out: ATCC 17978 IC90. Here is the method:
Antimicrobial Susceptibility Testing: 90% Growth Inhibitory Concentration (IC90) Determination The in vitro antimicrobial activity of the compounds was determined according to the following procedure: The assay used a 10-points Iso-Sensitest broth medium to measure quantitatively the in vitro activity of the compounds against Acinetobacter baumannii ATCC17978 or ATCC17961. Stock compounds in DMSO were serially twofold diluted (e.g. range from 50 to 0.097 μM final concentration) in 384 wells microtiter plates and inoculated with 49 μl the bacterial suspension in Iso-Sensitest medium to have a final cell concentration of ˜5×10^(5) CFU/ml in a final volume/well of 50 ul/well. Microtiter plates were incubated at 35±2° C. Bacterial cell growth was determined with the measurement of optical density at X=600 nm each 20 minutes over a time course of 16 h. Growth inhibition was calculated during the logarithmic growth of the bacterial cells with determination of the concentration inhibiting 50% (IC50) and 90% (IC90) of the growth. Table 1 provides the 90% growth inhibitory concentrations (IC90) in micromoles per liter of the compounds of present invention obtained against the strain Acinetobacter baumannii ATCC17978.
The IC90 is the concentration at which the effect reaches the 90% level. `Cn1c(-c2ccc(OC(F)F)c(F)c2F)cnc1C(=O)Nc1ccc(C(=O)NCCC2CN(CC3CNC3)C2)c(Cl)c1` [Example C1, N-[4-[2-[1-(Azetidin-3-ylmethyl)azetidin-3-yl]ethylcarbamoyl]-3-chloro-phenyl]-5-[4-(difluoromethoxy)-2,3-difluoro-phenyl]-1-methyl-imidazole-2-carboxamide;2,2,2-trifluoroacetic acid]: the IC90 came to 830 nM.
For the molecule `COc1ccc(-c2cnc(C(=O)Nc3ccc(C(=O)NCCNC(=O)[C@H]4C[C@@](C)(O)CN4)c(C)c3)n2C)c(F)c1F` [Example B26, 5-(2,3-difluoro-4-methoxy-phenyl)-N-[4-[2-[[(2R,4R)-4-hydroxy-4-methyl-pyrrolidine-2-carbonyl]amino]ethylcarbamoyl]-3-methyl-phenyl]-1-methyl-imidazole-2-carboxamide;formic acid], the IC90 stood at 1200 nM.
To `COc1ccc(-c2cnc(C(=O)Nc3ccc(C(=O)NCCN4CCNCC4)c(Cl)c3)n2C)c(F)c1F` [Example A2, N-[3-chloro-4-(2-piperazin-1-ylethylcarbamoyl)phenyl]-5-(2,3-difluoro-4-methoxy-phenyl)-1-methyl-imidazole-2-carboxamide] belongs 610 nM; to `COc1ccc(-c2cnc(C(=O)Nc3ccc(C(=O)NC4CCNC4)c(Cl)c3)n2C)c(F)c1F` (stereo not drawn) [Example A3, N-[3-chloro-4-(pyrrolidin-3-ylcarbamoyl)phenyl]-5-(2,3-difluoro-4-methoxy-phenyl)-1-methyl-imidazole-2-carboxamide;formic acid], 310 nM.
`CCc1cc(NC(=O)c2ncc(-c3ccc(OC)c(F)c3F)n2C)ccc1C(=O)NC1CN(C(=O)CN)C1` [Example B23, N-[4-[[1-(2-aminoacetyl)azetidin-3-yl]carbamoyl]-3-ethyl-phenyl]-5-(2,3-difluoro-4-methoxy-phenyl)-1-methyl-imidazole-2-carboxamide;formic acid]: the concentration for an effect of 90% (IC90) was 300 nM.
As for `COc1ccc(-c2cnc(C(=O)Nc3ccc(C(=O)NC4CCN(C(=O)C5CCNCC5)C4)c(Cl)c3)n2C)c(F)c1F` (stereo not drawn) [Example B1, N-[3-Chloro-4-[[1-(piperidine-4-carbonyl)pyrrolidin-3-yl]carbamoyl]phenyl]-5-(2,3-difluoro-4-methoxy-phenyl)-1-methyl-imidazole-2-carboxamide; formic acid], the figure is 110 nM.
To `COc1ccc(-c2cnc(C(=O)Nc3ccc(C(=O)NC4CCN(C(=O)CN(C)C)C4)c(Cl)c3)n2C)c(F)c1F` (stereo not drawn) [Example A23, N-[3-Chloro-4-[[1-[2-(dimethylamino)acetyl]pyrrolidin-3-yl]carbamoyl]phenyl]-5-(2,3-difluoro-4-methoxy-phenyl)-1-methyl-imidazole-2-carboxamide] belongs 220 nM; to `CC(C)CCOCCNC(=O)c1ccc(NC(=O)c2ncc(-c3ccc(OCC#N)c(F)c3F)n2C)cc1Cl` [Example A27, N-[3-chloro-4-(2-isopentyloxyethylcarbamoyl)phenyl]-5-[4-(cyanomethoxy)-2,3-difluoro-phenyl]-1-methyl-imidazole-2-carboxamide;formic acid], 240 nM.
As for `COc1ccc(-c2cnc(C(=O)Nc3ccc(C(=O)N[C@H]4C[C@@H](C(=O)N5CC(N)C5)C4)c(Cl)c3)n2C)c(F)c1F` [Example B20, N-[4-[[3-(3-aminoazetidine-1-carbonyl)cyclobutyl]carbamoyl]-3-chloro-phenyl]-5-(2,3-difluoro-4-methoxy-phenyl)-1-methyl-imidazole-2-carboxamide;formic acid], the figure is 210 nM.
With `COc1ccc(-c2cnc(C(=O)Nc3ccc(C(=O)NC4CCN(C(=O)CN(C)C)CC4)c(Cl)c3)n2C)c(F)c1F` [Example A25, N-[3-chloro-4-[[1-[2-(dimethylamino)acetyl]-4-piperidyl]carbamoyl]phenyl]-5-(2,3-difluoro-4-methoxy-phenyl)-1-methyl-imidazole-2-carboxamide], the IC90 amounted to 130 nM.
As for `Cn1c(-c2ccc(OCC#N)c(F)c2F)cnc1C(=O)Nc1ccc(C(=O)NCCN2CCNCC2)c(Cl)c1` [Example A10, N-[3-chloro-4-(2-piperazin-1-ylethylcarbamoyl)phenyl]-5-[4-(cyanomethoxy)-2,3-difluoro-phenyl]-1-methyl-imidazole-2-carboxamide;2,2,2-trifluoroacetic acid], the figure is 360 nM; as for `Cc1cc(NC(=O)c2ncc(-c3ccc(OCC#N)c(F)c3F)n2C)ccc1C(=O)NCCNC(=O)N[C@H]1CNC[C@@H]1O` [Example B31, 5-[4-(cyanomethoxy)-2,3-difluoro-phenyl]-N-[4-[2-[[(3S,4S)-4-hydroxypyrrolidin-3-yl]carbamoylamino]ethylcarbamoyl]-3-methyl-phenyl]-1-methyl-imidazole-2-carboxamide;formic acid], 740 nM.
In the case of `CCc1cc(NC(=O)c2ncc(-c3ccc(OC(F)F)c(F)c3F)n2C)ccc1C(=O)NCCCNC(=O)C1CCN(CC2CNC2)CC1` [Example C3, 1-(azetidin-3-ylmethyl)-N-[3-[[4-[[5-[4-(difluoromethoxy)-2,3-difluoro-phenyl]-1-methyl-imidazole-2-carbonyl]amino]-2-ethyl-benzoyl]amino]propyl]piperidine-4-carboxamide;formic acid], the IC90 came to 450 nM.
With `Cn1c(-c2ccc(OC(F)F)c(F)c2F)cnc1C(=O)Nc1ccc(C(=O)NCCCNC(=O)CCN)c(Cl)c1` [Example B11, N-[4-[3-(3-aminopropanoylamino)propylcarbamoyl]-3-chloro-phenyl]-5-[4-(difluoromethoxy)-2,3-difluoro-phenyl]-1-methyl-imidazole-2-carboxamide;2,2,2-trifluoroacetic acid], the IC90 was determined as 230 nM.
In the case of `COc1ccc(-c2cnc(C(=O)Nc3ccc(C(=O)NCCNC(=O)N[C@H]4CNC[C@@H]4O)c(C)c3)n2C)c(F)c1F` [Example B29, 5-(2,3-difluoro-4-methoxy-phenyl)-N-[4-[2-[[(3S,4S)-4-hydroxypyrrolidin-3-yl]carbamoylamino]ethylcarbamoyl]-3-methyl-phenyl]-1-methyl-imidazole-2-carboxamide;formic acid], the IC90 came out at 610 nM.
As to `Cc1cc(NC(=O)c2ncc(-c3ccc(OCC#N)c(F)c3F)n2C)ccc1C(=O)NCCNC(=O)C1CCNCC1` [Example B13, N-[2-[[4-[[5-[4-(cyanomethoxy)-2,3-difluoro-phenyl]-1-methyl-imidazole-2-carbonyl]amino]-2-methyl-benzoyl]amino]ethyl]piperidine-4-carboxamide;formic acid], the IC90 was 910 nM.
Regarding `Cn1c(-c2ccc(OCC#N)c(F)c2F)cnc1C(=O)Nc1ccc(C(=O)NCCNC(=O)[C@H]2C[C@@](C)(O)CN2)c(Cl)c1` [Example B36, N-[3-chloro-4-[2-[[(2R,4R)-4-hydroxy-4-methyl-pyrrolidine-2-carbonyl]amino]ethylcarbamoyl]phenyl]-5-[4-(cyanomethoxy)-2,3-difluoro-phenyl]-1-methyl-imidazole-2-carboxamide;formic acid], the IC90 turned out to be 1100 nM.
`CCc1cc(NC(=O)c2ncc(-c3ccc(OC)cc3Cl)n2C)ccc1C(=O)NCCOCCN` [Example A16, N-[4-[2-(2-aminoethoxy)ethylcarbamoyl]-3-ethyl-phenyl]-5-(2-chloro-4-methoxy-phenyl)-1-methyl-imidazole-2-carboxamide;hydrochloride]: the IC90 was found to be 1500 nM.
